Results on 5 molecules are retold here after patent publication US10207023B2, “Antibacterial calcium-based materials” (NATIONAL CHENG KUNG UNIVERSITY, priority 2012, dated 2019).

The structures appear in SMILES notation.

Assay [1] concerns staphylococcus aureus (SA). Kind of assay: Disk diffusion assay (antibacterial zone). The assay is classed as cell-based. The following applies: for antibacterial behavior: commercially pure lithium compounds, dry- or wet-molded 3 mm high, 6 mm dia. cylinders; for anti-bacterial zones: wet-molded pure Li compound (0.6 M (NH4)2HPO4 setting solution, 1.4 MPa), 6 mm dia. cylinder. On the procedure: To prepare a TSB medium, 6 g Tryptone (Neogen, USA), 2 g Soytone (Soytone BD, USA) and 2 g NaCl (J.T. Baker, USA) were placed into a beaker filled with 400 ml of double distilled water and mixed with a stir bar. After total dissolution, the pH of the solution was adjusted to 7.3 and the solution was autoclaved (121° C., 1.2 kg/cm^2) for 30 min.
To prepare a TSA medium, 6 g Tryptone (Neogen, USA), 2 g Soytone (Soytone BD, USA), 2 g NaCl (J.T. Baker, USA) and 6 g Agar (Neogen, USA) were placed into a beaker filled with 400 ml of double distilled water and mixed with a stir bar. After total dissolution, the pH of the solution was adjusted to 7.3 and the solution was autoclaved (121° C., 1.2 kg/cm^2) for 30 min. After being sterilized, the TSA medium was poured into a petri dish and allowed hardened. The TSA medium was then placed into an incubator at 30° C.
1 ml staphylococcus aureus (SA) containing TSB medium was transferred into a 15 ml centrifuge tube, wherein 10 ml phosphate buffered saline (PBS) was added and mixed gently. The mixture was centrifuged (KUBOTA 5922, Japan) at 3000 rpm for 10 minutes. The supernatant was removed and a SA pellet remained. 1 ml PBS was then added to suspend the pellet. 20 μl of the SA suspension and 180 μl PBS were transferred into each well of a 96 well plate. The absorbance was assayed using an ELISA reader (Sunrise, Tecan, Switzerland) at 600 nm to determine the bacterial concentration (cfu/ml) (200 μl of PBS was used as a negative control). Once determined, an appropriate volume of SA containing medium was transferred into a 1 micro centrifuge tube, wherein TSB was added to adjust bacterial concentration to 3.5×10^6 (cfu/ml). The tube was shaked for 15 seconds to allow thorough mixing. 100 μl of the SA containing medium was removed and dropped evenly across the agar plate. Once the broth was distributed evenly on agar plate and became almost dry, samples to be tested were placed on top of the agar and the petri dish was covered with a parafilm. The dish was placed in an incubator (LM-570R, Yih Der, Taiwan) at 37° C. for 24 hours. Bacteria colony formation was then observed and colony diameters measured.
After being loaded, the samples were placed on a table for 1 hour to become dry. Four samples were then placed into a 20 ml glass vial, wherein 8 ml Hanks' solution was added with a solid/liquid ratio of 0.1 g/ml. The glass vial was put into a water bath at 37° C. for 1, 2, 3, 5, and 7 days. The Hanks' solution was changed daily. Once having been soaked for desired periods of time, the samples were placed into a 50° C. oven for 24 hours, then stored in a zip lock bag.

The test system of the next assay is S. aureus. Put plainly: Antimicrobial activity measurement (CFU count in TSB). The assay is classed as cell-based. On the procedure: Appropriate amount of UV-sterilized sample (either granule or cement) to be tested was put in a 12-well plate, wherein was added 1 ml Tryptone Soya Broth (TSB) with 10^6 live S. aureusbacteria in each well (concentration: 10^6 colony-forming units (CFU) per ml). S. aureusbacteria were cultured with the sample anaerobically at 37° C. One cultured without sample was considered as a positive control in each study group. The viability of the bacterial suspensions incubated with different samples was assessed using Tryptone Soya Agar (TSA) solid agar plates. After cultivation for 24 h, broth of each well was sequentially diluted and plated. The growth of bacteria was evaluated after cultivation on agar plates at 37° C. for 24 h. Then colony-forming units (CFU) were counted to calculate concentration using the equation,
[formula] and the antimicrobial activity is obtained by the following equation: Antimicrobial activity={[(Conc. of control group)−(conc. of experiment)]/(Conc. of control group)}×100%
Appropriate amounts of UV-sterilized Li3PO4 or Li2CO3 salt were each mixed with 1 ml TSB and tested for their antimicrobial activity values using the aforementioned method.
Appropriate amounts of “65/35” powder were mixed with appropriate amounts of Li3PO4 or Li2CO3 salt to form TTCP/DCPA/CSH/Li salt mixed powder with different Li salt ratios. The mixed powder was mixed with 0.6 M (NH4)2HPO4 solution to form a cement paste. Prior to being fully hardened, the paste was placed in a stainless steel mold under a pressure of 450 Kgf to squeeze a portion of the liquid out of the paste. After being hardened and removed from the mold, the hardened block was crushed and sieved into granules with a particle size range of about 0.4-1.2 mm. 0.2 g UV-sterilized thus-obtained granular sample was mixed with 1 ml TSB and tested for its antimicrobial activity using the aforementioned method.

`O=P([O-])([O-])[O-].[Li+].[Li+].[Li+]` [Li3PO4, Lithium phosphate]: the antibacterial behavior result in assay [1] is recorded as “high antibacterial behavior”. For the same molecule, the “24 h antimicrobial activity values” with S. aureus (0.06-0.12 g Li3PO4 salt in 1 ml TSB) is listed as 97.4-98.9%. Besides, the “Antimicrobial activity (24 h)” value with S. aureus (Li salt amount/TSB 0.06 g/ml) was determined as 98.9%; in the assay with S. aureus (Li salt amount/TSB 0.08 g/ml), 98.9%; in the assay with S. aureus (Li salt amount/TSB 0.10 g/ml), 97.4%; in the assay on S. aureus (Li salt amount/TSB 0.12 g/ml) it was 98.8%; in the assay on S. aureus (Li salt amount/TSB 0.14 g/ml), 99.8%.
Consider `[F-].[Li+]` [LiF, Lithium fluoride], for which the antibacterial behavior entry in assay [1] is recorded as “high antibacterial behavior”.
Consider `[Li+].[Li+].[O-2]` [Li2O, Lithium oxide], for which the antibacterial behavior entry in assay [1] is recorded as “high antibacterial behavior”.
For the molecule `O=S(=O)([O-])[O-].[Li+].[Li+]` [Li2SO4, Lithium sulfate], in assay [1], the antibacterial behavior result is “high antibacterial behavior” and the anti-bacterial zones was determined as 22 mm.
Turning to `O=C([O-])[O-].[Li+].[Li+]` [Li2CO3, Lithium carbonate], the antibacterial behavior result in assay [1] was “high antibacterial behavior”. In assay [1], the anti-bacterial zones is reported as 18 mm. Moreover, the “Antimicrobial activity (24 h)” value in the assay on S. aureus (Li salt amount/TSB 0.06 g/ml), in the assay with S. aureus (Li salt amount/TSB 0.08 g/ml), with S. aureus (Li salt amount/TSB 0.10 g/ml), in the assay with S. aureus (Li salt amount/TSB 0.12 g/ml) and with S. aureus (Li salt amount/TSB 0.14 g/ml) was 100% each time. Further, in the assay with S. aureus (all Li2CO3 salt samples (0.06-0.14 g/ml TSB)), the “24 h antimicrobial activity value” came out at 100%.
